According to PMC3929086, “Targeted manipulation of the sortilin–progranulin axis rescues progranulin haploinsufficiency” (Human Molecular Genetics, 2013):

What was measured:
[1] = test system: SORT1-mediated PGRN endocytosis; test: Quantitative DyL-rPGRN endocytosis assay in COS-1^SORT1 cells; assay type: cell-based, human; settings: COS-1^SORT1, 5 μM binder pre-incubated 1 h with rPGRN, 1 h endocytosis
Protocol: COS-1 cells seeded on a 96-well black plate 1 day before were transfected with pCMV-SORT1 vector. After 24 h, cells were treated with fluorescence-tagged rPGRN (DyL-rPGRN) pre-labeled by DyLight™ 594 antibody labeling kit (Thermo Scientific). The DyL-rPGRN was diluted in OptiMEM to tested concentrations and incubated with the cells for 1 h for endocytosis. The cells were then washed with cold PBS and then fixed by 4% paraformaldehyde. After washing twice, each well was filled with PBS prior scanning. The total PGRN fluorescent signal from the cells was obtained by a plate reader with 593/618 nm (Ex/Em) settings. The endocytosis signal was normalized by the total nuclei signal obtained by staining with a Hoechst 33342 dye. Baseline endocytosis signal was defined as a signal from medium-only-treated cells, whereas the 100% endocytosis level was set as the signal obtained from cells treated with 50 nM DyL-rPGRN. For testing SORT1 ligands, DyL-rPGRN and the peptide were added simultaneously to the cells. For testing of PGRN binders, the binder was pre-incubated with DyL-rPGRN for 1 h before adding to the cells. For qualitative analysis, images from each well were captured by BD Pathway 855 system using a 20× magnification setting.

[2] = test system: PGRN endocytosis in SORT1^KO-hESCs; test: DyL-rPGRN endocytosis in SORT1^KO-hESCs; assay type: cell-based, human; settings: SORT1^KO-hESC
Source text: (§1) To determine whether BVFP, when bound to PGRN, disrupts full-length PGRN and SORT1 binding, we devised a SORT1-dependent rPGRN precipitation assay utilizing the Meso-Scale Discovery (MSD) system (Supplementary Material, Fig. S4A and B). […] To include a higher-affinity PGRN588–593 motif binder as a positive control, an antibody targeting the motif, PGRN-CT antibody, was made for validating the approach (Fig. 5F). […] First, we found SORT1 was abundantly expressed in the wild-type hESCs (Fig. 5H). Similar to the results from COS-1^SORT1 cells, BVFP and PGRN-CT antibody inhibited endocytosis of DyL-rPGRN by 22 and 39%, respectively, under the same experimental conditions in wild-type hESCs (Fig. 5I left).
(§2) COS-1 cells seeded on a 96-well black plate 1 day before were transfected with pCMV-SORT1 vector. After 24 h, cells were treated with fluorescence-tagged rPGRN (DyL-rPGRN) pre-labeled by DyLight™ 594 antibody labeling kit (Thermo Scientific). The DyL-rPGRN was diluted in OptiMEM to tested concentrations and incubated with the cells for 1 h for endocytosis. The cells were then washed with cold PBS and then fixed by 4% paraformaldehyde. After washing twice, each well was filled with PBS prior scanning. The total PGRN fluorescent signal from the cells was obtained by a plate reader with 593/618 nm (Ex/Em) settings. […]

[3] = test system: PGRN endocytosis in WT-hESCs; test: DyL-rPGRN endocytosis in wild-type hESCs; assay type: cell-based; settings: Homo sapiens; WT-hESC, BVFP, same conditions as COS-1^SORT1 (5 μM)
Source text: as §1, §2

PGRN(588–593) peptide = test: UV-absorption titration of BVFP with PGRN(588–593) peptide; assay type: binding, human; settings: 20 μM BVFP, PGRN(588–593) peptide titrated
Protocol: Stock solutions of compound BVFP (20 mM) and PGRN(588–593) peptide (12.96 mM) were prepared in DMSO and water, respectively. For the UV absorption experiment, both components were diluted to give final concentrations of 20 μM BVFP and 324 μM peptide. The interaction between BVFP and the PGRN(588–593) peptide was monitored by scanning over the UV absorbance range of 200–800 nm on a Cary 3 Bio UV–visible spectrophotometer (Varian), as a small amount of KKGRN peptide (0.1 equivalence/1 μl per addition) was titrated into the 20 μM BVFP sample. In addition to baseline correction with DMSO, a control titration experiment using water in place of the PGRN(588–593) peptide was performed under identical conditions in order to correct for potential spectral changes owing to sample dilution.

PGRN588–593 peptide = PGRN588–593 peptide (Homo sapiens, UniProt P28799); test: Epic biochemical binding assay (resonant waveguide grating); settings: PGRN588–593 peptide immobilized; PBS with 5% DMSO; 30 min binding; n = 4
Source text: page 6: SUPPLEMENTARY METHODS AND RESULTS Epic(R) biochemical assay and compound library screen Essentially, the Epic® is a spectrophotometric reader that uses a resonant waveguide grating detection mechanism to detect biochemical interactions (Fig.5A). In brief, the waveguide grating biosensor in each well of the 384-well assay plate intercepts broadband light and measures changes in resonant wavelengths (in picometers, pm) when a ligand binds to the target protein immobilized on the biosensor. To identify chemical binders of the PGRN588-593 peptide, we immobilized the peptide onto the biosensor surface of Epic® assay plates using an amine- coupling method, and screened 4,800 compounds. For immobilization, 150 µg/ml peptide diluted in a 20 mM sodium acetate buffer, pH 5, was added to the assay plate to incubate for overnight at 4 °C. The plate was then washed in binding buffer (PBS with 5% DMSO) for three times and equilibrated in the binding buffer for 6 h in the Epic® carousal. During the equilibration period, compounds from the library stock plate (CNS-set compound library from Chembridge®) were diluted to 50 µM in binding buffer. Each compound was tested in quadruplicate. After the equilibration, a Baseline Reading was acquired by the Epic® spectrophotometer. […] After mixing and a 30 min ‘binding’ period, a Final Reading was acquired. […]

SORT1–PGRN interaction = test: MSD-based SORT1–PGRN interaction assay; assay type: biochemical, human; settings: BVFP 20 and 200 μM pre-incubated 30 min with 200 nM N-rP
Protocol: M17 cells were transfected with pCMV-SORT1-Flag for 48 h. Then, the cell lysate was harvested by the same method used in the co-immunoprecipitation assay. Expression of SORT1-Flag protein was confirmed by western blot. MSD plate was first coated with the Flag M2 antibody (Sigma). Following an overnight incubation at 4°C, the plate was blocked for 2 h and then washed prior to addition of 5 µg/well of lysate protein containing SORT1-Flag protein. After overnight incubation at 4°C, it was then washed and added with 200 nM of either N-6His- or C-6His-tagged rPGRN pre-incubated with either vehicle, 20 µM or 200 µM of BVFP, for 30 min at room temperature. Then plate was then incubated for 2 h, washed and incubated with a mixture of PCDGF antibody and a SULFO-TAG-labeled anti-rabbit IgG antibody for 2 h. After final wash, the plate was read by the MSD Sector Imager 2400.

GRN expression = settings: HDAC inhibitor; cited from earlier work
Source text: While new strategies designed to upregulate PGRN levels have emerged, challenges remain in terms of limiting off-target effects. […] However, because HDAC and V-ATPase inhibitors can potentially affect a wide-range of genes at transcriptional and po ...

SORT1 = test: PGRN endocytosis in M17 cells overexpressing SORT1; assay type: cell-based; settings: M17 cells overexpressing SORT1, after EL reaction
Protocol: M17 cells seeded in 12-well culture plates (western blot) or on glass coverslips in 24-well culture plate (immunofluorescence) were transfected with pEGFP-N1 (Clontech) or pCMV-SORT1 (OriGene) vectors. Next day, the cells were changed into serum-free medium 1 h before addition of rPGRN (500 ng/ml) and treated for 60 min. The cells were then put on ice and washed with cold PBS. For western blot, cells were lysed in cold M-Per protein extraction buffer followed by standard procedures as mentioned. For immunofluorescence analyses, cells were fixed in 4% paraformaldehyde solution followed by PBS washes. The cells were then incubated in blocking buffer (PBS, 5% goat serum, 0.1% saponin) for 1 h at room temperature followed by incubation in primary antibody overnight at 4°C. The cells were incubated with secondary antibodies (1:1000) for 1 h at room temperature. The coverslips were then mounted onto slides and waited overnight before analysis. Image analysis was performed by Zeiss LSM 510 META confocal microscope using 60× magnification setting.

elastase = test: Elastase digestion of rPGRN in cell culture media; assay type: in vitro ADME; settings: in vitro reaction with EL in culture media; compared with WT rPGRN, western blot
Protocol: PGRN, SORT1, GFP, GAPDH and β-actin proteins were analyzed using 10% Tris–glycine polyacrylamide gel by SDS–PAGE. After electrophoresis, proteins on gel were transblotted to PVDF membranes followed by standard immunoblotting protocols.

O=c1nc(C=Cc2cccc(Br)c2)cc(C(F)(F)F)[nH]1 [BVFP, 4-[2-(3-bromophenyl)vinyl]-6-(trifluoromethyl)-2(1H)-pyrimidinone]
inhibition of DyL-rPGRN endocytosis [1]: 23% | effect on DyL-rPGRN endocytosis [2]: no effect on DyL-rPGRN endocytosis | inhibition at 5 µM [3]: 22% | UV-absorption change upon peptide titration (PGRN(588–593) peptide): shift in the ultraviolet(UV)-absorption spectra of BVFP and distinct changes of absorption intensities | isosbestic point (PGRN(588–593) peptide): 313 nm | Kd (PGRN588–593 peptide): 20 µM | inhibition of rPGRN binding to immobilized SORT1 (SORT1–PGRN interaction): dose-dependent inhibition of rPGRN binding to immobilized SORT1

O=C(CCCCCCC(=O)Nc1ccccc1)NO [suberoylanilide hydroxamic acid]
GRN expression (GRN expression): enhancer of GRN expression

B1: A588G-rPGRN: rPGRN with Ala-to-Gly mutation at the A588 elastase cleavage site (protein)
chain: TRCPDGQFCPVACCLDPGGASYSCCRPLLDKWPTTLSRHLGGPCQVDAHCSAGHSCIFTVSGTSSCCPFPEAVACGDGHHCCPRGFHCSADGRSCFQRSGNNSVGAIQCPDSQFECPDFSTCCVMVDGSWGCCPMPQASCCEDRVHCCPHGAFCDLVHTRCITPTGTHPLAKKLPAQRTNRAVALSSSVMCPDARSRCPDGSTCCELPSGKYGCCPMPNATCCSDHLHCCPQDTVCDLIQSKCLSKENATTDLLTKLPAHTVGDVKCDMEVSCPDGYTCCRLQSGAWGCCPFTQAVCCEDHIHCCPAGFTCDTQKGTCEQGPHQVPWMEKAPAHLSLPDPQALKRDVPCDNVSSCPSSDTCCQLTSGEWGCCPIPEAVCCSDHQHCCPQGYTCVAEGQCQRGSEIVAGLEKMPARRASLSHPRDIGCDQHTSCPVGQTCCPSLGGSWACCQLPHAVCCEDRQHCCPAGYTCNVKARSCEKEVVSAQPATFLARSPHVGVKDVECGEGHFCHDNQTCCRDNRQGWACCPYRQGVCCADRRHCCPAGFRCAARGTKCLRREAPRWDAPLRDPGLRQLL
modifications: left off: His6, end not stated, state not stated
notes: rPGRN with Ala-to-Gly mutation at the A588 elastase cleavage site
uptake after elastase treatment (SORT1): endocytosed by cells to a similar extent compared with no EL control | resistance to elastase (residual full-length protein in medium) (elastase): more resistant to EL activity
